# Reference: patent publication US8669260B2, “Ketoconazole-derivative antagonist of human pregnane X receptor and uses thereof” (priority 2008, dated 2014)
# pEC50, pIC50: −log10 of the molar value. Like-named read-outs stand apart in the source and are kept apart here.
# Experiments:
# SKOV-3 xenografts = assay: In vivo SKOV-3 xenograft studies in NOD.SCID mice
# Method: HepG2 cells were processed into slides using histogel (Richard-Allan Scientific, Kalamazoo, Mich.). The slides were placed in a 59° C. oven in the morning of the experiments. For cells and tissue specimens, after de-waxing and re-hydrating the slides, slides were placed in a sodium citrate solution, pH 6.0 (Vector labs, Burlingame, Calif.) for 20 minutes. […] Cell sections were then immunostained with the biotin-streptavidin system from Vector Labs per manufacturer's instructions. Institutional IRB approval (#2007-902) was obtained for use of tissue sections from patients with serous papillary ovarian carcinoma and benign ovaries.
# 2×10^6 SKOV-3 cells were implanted by subcutaneous route into both flanks of NOD.SCID mice. On day 35 after inoculation, the mean (±SD) (n=32) volume of implanted tumor was 8 mm^3 (±3.5) (range: 4.3-18.3). […] Control intravenous injections consisted of 30% polyethylene glycol. The tumor volume was calculated twice a week using the following formula: Length (mm)×[Width (mm)]^2×π/6 (25).
# HepG2 cells = settings: for HepG2 cell proliferation (in words): 48 hours
# PXR [1] = molecular target: T1, PXR (Homo sapiens, UniProt O75469); settings: known potency; cited from earlier work
# T1 sequence (O75469 1-434): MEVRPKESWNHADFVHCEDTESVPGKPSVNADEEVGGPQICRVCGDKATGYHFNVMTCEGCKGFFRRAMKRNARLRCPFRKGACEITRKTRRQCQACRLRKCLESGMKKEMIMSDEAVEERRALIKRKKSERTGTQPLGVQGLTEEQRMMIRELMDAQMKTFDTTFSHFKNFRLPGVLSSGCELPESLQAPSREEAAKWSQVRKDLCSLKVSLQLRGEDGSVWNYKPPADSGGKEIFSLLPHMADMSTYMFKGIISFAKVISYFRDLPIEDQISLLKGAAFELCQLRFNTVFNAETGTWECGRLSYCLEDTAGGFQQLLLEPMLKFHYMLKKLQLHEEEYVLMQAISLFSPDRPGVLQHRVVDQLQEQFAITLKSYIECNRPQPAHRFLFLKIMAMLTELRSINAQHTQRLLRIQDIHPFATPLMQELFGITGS
# PXR [2] = molecular target: T1, PXR; assay: cell-based; set-up: expressed in transfected cells; host or cells: HepG2
# LS174T cells = assay: LS174T cell growth (trypan blue counting, doubling time); settings: within 72 hours
# SKOV-3 cells [3] = assay: Chemotherapeutic sensitivity assay in SKOV-3 cells with and without rifampicin
# CYP3A4 = CYP3A4 (Homo sapiens, UniProt P08684); assay: Time-dependent CYP3A4 inhibition assay in human liver microsome (midazolam 1-hydroxylase); settings: for Maximum % Inhibition, midazolam-1-hydroxylase activity / pIC50: human liver microsome; for pIC50: read-out: IC50, midazolam-1-hydroxylase activity
# CYP3A4, sequence (P08684 whole entry): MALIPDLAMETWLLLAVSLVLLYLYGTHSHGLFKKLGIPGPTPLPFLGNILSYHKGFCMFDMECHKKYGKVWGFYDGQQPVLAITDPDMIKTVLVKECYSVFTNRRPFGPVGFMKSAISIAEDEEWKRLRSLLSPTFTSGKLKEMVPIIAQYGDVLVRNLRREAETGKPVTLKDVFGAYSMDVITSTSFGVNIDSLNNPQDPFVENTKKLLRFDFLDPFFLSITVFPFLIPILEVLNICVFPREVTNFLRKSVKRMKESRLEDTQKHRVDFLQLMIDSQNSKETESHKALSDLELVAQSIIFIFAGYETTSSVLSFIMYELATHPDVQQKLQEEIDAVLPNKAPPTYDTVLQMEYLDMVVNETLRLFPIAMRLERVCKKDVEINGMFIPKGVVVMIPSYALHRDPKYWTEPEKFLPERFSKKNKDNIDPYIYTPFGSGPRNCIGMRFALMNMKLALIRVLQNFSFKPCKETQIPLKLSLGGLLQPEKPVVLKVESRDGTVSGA
# Method: Briefly, test articles were incubated in a reaction mixture containing 5 μM midazolam, 0.1 mg/ml human liver microsomes and 1 mM NADPH for 5 min. The enzyme reaction was stopped by adding an equal volume of quench solution (H2O:acetonitrileformic-acid=94:5:1) containing ^13C-1-hydroxymdiazolam (0.1 μM final) as the internal standard. In order to test time-dependency of CYP3A4 inhibition, an identical reaction was started without midazolam and the reaction mixture was incubated for 30 min. After the pre-incubation, 5 μM midazolam was added and incubated for 5 min before the quench solution was added. The samples were centrifuged at 1,500 RPM for 15 min to precipitate denatured microsomal proteins. […] A percent CYP3A4 inhibition (% Inh) was calculated by the following equation:
# [formula] CDMSO and Ccompound are concentrations of 1-hydroxymidazolam in the vehicle control and a compound tested, respectively. A plot of concentration-% Inh was then created and from the plot, IC50 and Maximum % Inhibition were reported.
# PXR [4] = molecular target: T1, PXR; assay: PXR transactivation assay (activation mode), HepG2 cells transfected with human PXR-pcDNA3 and CYP3A-Luc; type: cell-based; set-up: expressed in transfected cells; host or cells: HepG2
# [5] = test system: Caco-2, LS174T, SKOV3 and CRL cell lines; assay: Drug induced cytotoxicity by MTT assay in cancer and fibroblast cell lines
# [6] = test system: PXR target genes in SKOV-3 cells; assay: Quantitative RT-PCR of PXR target genes in SKOV-3 cells; type: cell-based; settings: 0-1.0 μM
# Method: In brief, total RNA was isolated using the Qiagen RNeasy Mini kit (QIAGEN, Inc., Valencia, Calif.). Reverse transcription was performed using Superscript first strand synthesis system (Invitrogen, Carlsbad, Calif.). For semi-quantitative PCR, one-tenth the reverse transcription (RT) reaction products were subjected to PCR amplification for 25 cycles in a singleplex format. […] Real time PCR for cDNA quantification was performed using TaqMan universal PCR master mix and TaqMan probes using, VIC as the 5′ reporter fluorochrome and tetramethylrhodamine (TAMRA) as the 3′ quencher fluorochrome. […] The reference gene, PPIA (Cyclophilin A), was a VIC/MGB probe (Applied Biosystems, Foster City, Calif.). The standard curves for PXR, CYP3A4, CYP2B6, UGT1A1, MDR1, and MRP-2 cDNA were constructed to ensure linearity in the concentration range studied. The PXR assay (ID #Hs01114267_m1) and the UGT1A1 assay (ID # Hs02511055_s1) were ordered through Applied Biosystems. […] Amplification was detected and analyzed using the ABI PRISM 7700 sequence detector with SDS 2.1 analysis software (Applied Biosystems, Foster City, Calif.). The relative fold increase in mRNA in samples compared with controls was calculated using the comparative CT method.
# SKOV-3 cells [7] = settings: MTT; 48-96 hr exposure (T1317: 48 hours, normalized to GSK1385)
# LXR = settings: known potency; cited from earlier work
# [8] = non-linear regression, activation by 10 μM rifampicin, read-out: PXR Inhibition IC50
compound,measurement,setting,value
rifampicin,"Ki67 stained cells, mean (SEM)","SKOV-3 xenografts; SKOV-3 xenografts, NOD.SCID mice, 40 mg/kg/day i.v., control 577.0 (21), p<0.00001",937.0 (37)
same,tumor size at necropsy and tumor weight (in words),"SKOV-3 xenografts; day 60, versus control",significantly larger tumors
same,tumor volumes (in words),"SKOV-3 xenografts; days 45-60, versus controls",significantly higher
same,HepG2 cell proliferation (in words),HepG2 cells; single agent,concentration dependent proliferation of cells
same,pEC50,PXR [1],5.70 to 6.00
same,pIC50,PXR [2]; [8],< 4.30
same,growth rate constant (k=ln 2/g),LS174T cells; PXR knockdown LS174T cells,~0.008 hr^−1
same,growth rate constant (k=ln 2/g),LS174T cells; vector-transfected LS174T cells,~0.02 hr^−1
same,"effect on cytotoxicity of ixabepilone, paclitaxel and SN-38 (in words)","SKOV-3 cells [3]; SKOV-3 cells, rifampicin 20 μM",significantly decreased the cytotoxicity
CC(=O)N1CCN(c2ccc(OC[C@H]3CO[C@@](C)(c4ccc(Cl)cc4Cl)O3)cc2)CC1 [UCL2158H],"Maximum % Inhibition, midazolam-1-hydroxylase activity",CYP3A4; +preincubation (30 min),67%
same,time-dependency of CYP3A4 inhibition,CYP3A4; IC50 with vs without 30 min preincubation,no time-dependency
same,pIC50,CYP3A4; +preincubation (30 min),4.71
same,pIC50,CYP3A4; −preincubation,4.97
same,"Maximum % Inhibition, midazolam-1-hydroxylase activity",CYP3A4; −preincubation,80%
same,Maximum % Activation Observed,"PXR [4]; PXR transactivation relative to 10 μM rifampicin, HepG2, 24 h, 50 μM-2.5 nM",10%
same,pEC50,"PXR [4]; non-linear regression analysis, read-out: PXR Activation EC50",< 4.30
same,Maximum % Inhibition Observed,PXR [2],109%
same,inhibition of rifampicin-mediated PXR activation (in words),PXR [2]; PXR transactivation assay,most potent inhibitors of PXR
same,pIC50,PXR [2]; [8],4.84
same,PXR Inhibition Imax,"PXR [2]; non-linear regression, maximal inhibition of PXR activation with 10 μM rifampicin",128%
same,cytotoxicity (in words),"[5]; epithelial cells, concentration range up to 100 μM, MTT",less cytotoxic than ketoconazole
CCc1c2c(nc3ccc(O)cc13)-c1cc3c(c(=O)n1C2)COC(=O)[C@]3(O)CC [SN-38],resistance index induced by rifampicin,SKOV-3 cells [3]; IC50(R)/IC50 (no R),~17.5
same,pIC50,"SKOV-3 cells [3]; read-out: IC50(R), SKOV-3 cells, with rifampicin",~5.46
same,pIC50,"SKOV-3 cells [3]; read-out: IC50 (no R), SKOV-3 cells, without rifampicin",~6.70
"CC(=O)N1CCN(c2ccc(OCC3COC(Cn4ccnc4)(c4ccc(Cl)cc4Cl)O3)cc2)CC1 (centres unmarked) [Ketoconazole, ketoconazole]",HepG2 cell proliferation (in words),HepG2 cells; combination of ketoconazole and rifampicin,cell proliferation is clearly decreased
same,non-viable cells,"HepG2 cells; HepG2, 48 hours, 50 μM",> 35%
same,pEC50,PXR [4],< 4.30
same,PXR activation (in words),PXR [4]; PXR transactivation assay,weak activator of PXR
same,pIC50,PXR [2],4.73
same,inhibition of rifampicin-mediated PXR activation (in words),PXR [2],inhibitor of activated PXR
same,viability,"[5]; across all cell lines tested, effective concentration range for PXR inhibition (two times the IC50 ~30 μM), 48 hours",65-75%
CC(=O)O[C@H]1C(=O)[C@@]2(C)[C@H]([C@H](OC(=O)c3ccccc3)[C@]3(O)C[C@H](OC(=O)[C@H](O)[C@@H](NC(=O)c4ccccc4)c4ccccc4)C(C)=C1C3(C)C)[C@]1(OC(C)=O)CO[C@@H]1C[C@@H]2O [paclitaxel],pIC50,"SKOV-3 cells [3]; Homo sapiens, SK-OV-3, read-out: IC50 with rifampicin (R)",~4.40
same,pIC50,"SKOV-3 cells [3]; Homo sapiens, SK-OV-3, read-out: IC50 without rifampicin (no R)",~5.40
same,resistance index induced by rifampicin,SKOV-3 cells [3]; IC50 with rifampicin / IC50 without rifampicin,~10 fold
C/C(=C\c1csc(C)n1)[C@@H]1C[C@@H]2O[C@]2(C)CCC[C@H](C)[C@H](O)[C@@H](C)C(=O)C(C)(C)[C@@H](O)CC(=O)N1 [ixabepilone],% increased survival relative to ixabepilone without rifampicin,"SKOV-3 cells [3]; SKOV-3, ixabepilone 0.1-50 μM in the presence of rifampicin, average",~20%
O=S(=O)(c1ccccc1)N(CC(F)(F)F)c1ccc(C(O)(C(F)(F)F)C(F)(F)F)cc1 [T0901317],PXR target gene induction (in words),[6],same profile of gene expression
same,SKOV-3 cell survival (in words),SKOV-3 cells [7],significant increase in cell survival
